Values quoted from earlier work, collected in US20110064711A1, “COMPOSITIONS CONTAINING COENZYME Q-10 AND AN ANTIOXIDANT” (priority 2009, published 2011).

Conditions: exposure to ambient air; general statement, time not given

## COc1c(O)c(C)c(C/C=C(\C)CC/C=C(\C)CC/C=C(\C)CC/C=C(\C)CC/C=C(\C)CC/C=C(\C)CC/C=C(\C)CC/C=C(\C)CC/C=C(\C)CCC=C(C)C)c(O)c1OC [Commercial reduced CoQ10 powder]
  reduced form of CoQ10 on a weight basis after exposure to air: below 20%
